Measurements: patent publication US12122973B2, “Guanidinium-based ionic liquid and its use as a lubricant additive” (TOTALENERGIES ONETECH, priority 2020, dated 2024)

Assays:
[1] = Solubility test of the ionic liquid in base oil; type: physicochemical; settings: lubricant composition of IL1 and base oil; room temperature (15-25° C.) and 60° C.; limpid after three months
From the text: In order to be used in a lubricant composition, the guanidinium-based ionic liquid must preferably be soluble in the base oil which represents the major part of the lubricant composition. A compound is oil-soluble when it can be solubilized at a concentration of at least 0.01% by weight with regards to the weight of a base oil, at room temperature. In order to check that the guanidinium-based ionic liquid is oil-soluble, a test is disclosed in the experimental part.
In order to check that the guanidinium-based ionic liquid is oil-soluble, the following test has been achieved:
100 mL of the lubricant composition comprising IL1 and the base oil is introduced into two reaction tubes. One of the tubes is maintained at room temperature (between 15 and 25° C.) and the other reaction tube is placed in an oven at 60° C.
After three months, the lubricant composition of both reaction tubes was limpid.

[2] = Base number (BN/TBN) according to ASTM D2896; type: physicochemical; settings: neat ionic liquid
Protocol: An oil's neutralization capacity is measured by its BN or Base Number, characterized by its basicity. It is measured according to standard ASTM D-2896 and is expressed as an equivalent in milligrams of potash per gram of oil (also called “mg of KOH/g” or “BN point”). The BN is a standard criterion making it possible to adjust the basicity of the cylinder oils to the sulphur content of the fuel oil used, in order to be able to neutralize all of the sulphur contained in the fuel, and capable of being converted to sulphuric acid by combustion and hydrolysis.
The base number of IL1 is 61 mg KOH/g according to ASTM D2896.

Q: For “1,1,3,3-tetramethylguanidinium tert-Octylphenylpolyethoxyethanolate [IL1]”, which “solubility in the oil” value [1] is on record?
A: soluble in the oil

Q: And the base number [2]?
A: 61 mg KOH/g
